Values of other authors, collected in patent US6331660A, “Maize DIMBOA biosynthesis genes” (Dekalb Genetics Corporation, priority 1998, dated 2001).

Target: T1, native E. coli α2β2 complex of tryptophan synthase α (TSA) and tryptophan synthase β (TSB) (Escherichia coli, UniProt P0A877)
T1 construct: by the native E. coli α2β2 complex
Conditions: conversion of indole-3-glycerol phosphate to indole, Weischet et al., 1976

T1 sequence (P0A879 2-397): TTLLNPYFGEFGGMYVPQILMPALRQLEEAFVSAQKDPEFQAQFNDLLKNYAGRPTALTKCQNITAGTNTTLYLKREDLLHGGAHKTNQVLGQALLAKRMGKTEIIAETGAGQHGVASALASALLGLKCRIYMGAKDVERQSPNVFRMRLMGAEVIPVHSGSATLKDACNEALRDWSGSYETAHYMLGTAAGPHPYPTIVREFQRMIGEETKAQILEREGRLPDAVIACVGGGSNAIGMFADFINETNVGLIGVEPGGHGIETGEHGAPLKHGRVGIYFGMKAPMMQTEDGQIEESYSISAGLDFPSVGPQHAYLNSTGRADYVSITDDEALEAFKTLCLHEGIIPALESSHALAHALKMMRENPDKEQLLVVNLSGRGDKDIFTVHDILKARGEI
T1 sequence (P0A877 whole entry): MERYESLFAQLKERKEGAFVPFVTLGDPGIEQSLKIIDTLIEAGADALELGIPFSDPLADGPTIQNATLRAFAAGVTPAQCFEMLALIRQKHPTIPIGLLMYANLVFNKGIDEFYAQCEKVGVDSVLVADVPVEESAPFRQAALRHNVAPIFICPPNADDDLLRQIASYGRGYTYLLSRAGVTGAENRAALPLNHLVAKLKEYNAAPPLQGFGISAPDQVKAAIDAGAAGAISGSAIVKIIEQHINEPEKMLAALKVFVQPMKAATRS

For O=P(O)(O)OCC(O)C(O)c1c[nH]c2ccccc12 (centres unmarked) [indole-3-glycerol phosphate], the kcat is given as 0.2 s⁻¹ and the Km (read-out: Km^indole-3-glycerol phosphate) is given as 27 µM.
